For one series, the target named is T1, native rat mGluR2 (Rattus norvegicus, UniProt P31421).
T1 construct: from tissue; host or cells: rat brain cortex membranes (Sprague-Dawley rats, Charles River Laboratories)
Briefly: [35S]GTPγS binding assay using cortical rat brain membranes. The class given is biochemical. As to conditions: selective mGluR2 agonist such as LY379268; rat cortical membranes; 3 or 10 μM of positive allosteric modulator. The text has this: The [^35S]GTPγS binding is a functional membrane-based assay used to study G-protein coupled receptor (GPCR) function. This method is using a binding assay to assess the initial step in receptor-mediated G protein activation in membranes prepared from cells expressing recombinant GPCR or using membranes from discrete area of the rat brain. In brief, the assay is measuring the activation of G proteins by catalyzing the exchange of guanosine 5′-diphosphate (GDP) by guanosine 5′-triphosphate (GTP) at the α subunit. The GTP-bounded G proteins dissociate into two subunits, Gα-GTP and Gβγ, which in turn regulate intracellular enzymes and ion channels. GTP is rapidly hydrolysed by the Gα-subunit (GTPases) and the G protein is deactivated and ready for new GTP exchange cycle (Harper (1998) Curr Protoc Pharmacol 2.6.1-10, John Wiley & Sons, Inc.). [^35S]GTPγS, a non-hydrolyzed analogue of GTP, is used for this purpose.
This method is widely used to study receptor activation of G protein in membranes prepared from rat brain tissue, including mGluR2 receptors (Schaffhauser et al 2003, Pinkerton et al, 2004). mGluR2 receptors are expressed in the rat brain cortex (Mutel et al (1998) J. Neurochem. 71:2558-64; Schaffhauser et al (1998) Mol. Pharmacol. 53:228-33) and are coupled to Gαi-protein, a preferential coupling for this method.
[^35S]GTPγS binding assay using cortical rat brain membranes preparation was used and adapted from Schaffhauser et al ((2003) Mol. Pharmacol. 4:798-810) for the detection of the positive allosteric modulator properties of the compounds of this invention on native rat mGluR2. In order to eliminate the possible interference with group III Gαi-protein coupled mGluRs (mGluR4, mGluR7, mGluR8; mGluR6 is not expressed in the cortex (Laurie et al (1997) Neuropharmacol. 36:145-52)), the potentiation of the response to a selective mGluR2 agonist, such as DCG-IV (Cartmell et al. (1998) Br. J. Pharmacol. 123(3):497-504) or LY379268 (Monn et al. (1999) J. Med. Chem 42:1027-40), by compounds described in the present invention was performed.
Cortices were dissected out from brains of 200-300 g Sprague-Dawley rats (Charles River Laboratories, L'Arbresle, France). Tissues were homogenized in 6 volumes (vol/wt) of 10% sucrose at 4° C. using a glass-teflon homogenizer. The homogenate was centrifuged at 1250 g for 10 min, and the supernatant was centrifuged at 40,000 g for 20 min (4° C.). The pellet was resuspended in 25 ml water using a Polytron disrupter (Kinematica AG, Luzern, Switzerland) and centrifuged for 10 min at 3000 g. (4° C.). The supernatant was centrifuged at 40,000 g for 20 min (4° C.). The supernatant was discarded and the pellet washed twice by resuspension in 10 volumes 5 mM HEPES-KOH, pH 7.4. The homogenate was frozen and thawed twice and centrifuged at 40,000 g for 20 min. The final pellet was resuspended in 5 mM HEPES-KOH, pH 7.4 and stored at −80° C. before its use. Protein concentration was determined by the Bradford method (Bio-Rad protein assay, Reinach, Switzerland) with bovine serum albumin as standard.
Measurement of mGluR2 positive allosteric modulators properties in rat cortical membranes was performed as follows: rat cortical membrane (1.5 μg) were incubated in 96-well microplates for 15 min at 30° C. in assay buffer (50 mM HEPES pH 7.4, 100 mM NaCl, 5 mM MgCl2, 10 μM GDP, 10 μg/ml saponin, EGTA 0.2 mM) with increasing concentrations of positive allosteric modulator (from 1 nM to 10 μM) and a minimal concentration of DCG-IV or LY379268, a selective mGluR2 agonist, that has been determined in previous experiments and that corresponds to the EC20, a concentration that gives 20% of the maximal response of the agonist, and is in accordance to published data (Pin et al. (1999) Eur. J. Pharmacol. 375:277-294). […]
(GTPγS is a poorly hydrolysed GTP analogue; its binding reports G protein activation.)

T1 sequence (P31421 19-872): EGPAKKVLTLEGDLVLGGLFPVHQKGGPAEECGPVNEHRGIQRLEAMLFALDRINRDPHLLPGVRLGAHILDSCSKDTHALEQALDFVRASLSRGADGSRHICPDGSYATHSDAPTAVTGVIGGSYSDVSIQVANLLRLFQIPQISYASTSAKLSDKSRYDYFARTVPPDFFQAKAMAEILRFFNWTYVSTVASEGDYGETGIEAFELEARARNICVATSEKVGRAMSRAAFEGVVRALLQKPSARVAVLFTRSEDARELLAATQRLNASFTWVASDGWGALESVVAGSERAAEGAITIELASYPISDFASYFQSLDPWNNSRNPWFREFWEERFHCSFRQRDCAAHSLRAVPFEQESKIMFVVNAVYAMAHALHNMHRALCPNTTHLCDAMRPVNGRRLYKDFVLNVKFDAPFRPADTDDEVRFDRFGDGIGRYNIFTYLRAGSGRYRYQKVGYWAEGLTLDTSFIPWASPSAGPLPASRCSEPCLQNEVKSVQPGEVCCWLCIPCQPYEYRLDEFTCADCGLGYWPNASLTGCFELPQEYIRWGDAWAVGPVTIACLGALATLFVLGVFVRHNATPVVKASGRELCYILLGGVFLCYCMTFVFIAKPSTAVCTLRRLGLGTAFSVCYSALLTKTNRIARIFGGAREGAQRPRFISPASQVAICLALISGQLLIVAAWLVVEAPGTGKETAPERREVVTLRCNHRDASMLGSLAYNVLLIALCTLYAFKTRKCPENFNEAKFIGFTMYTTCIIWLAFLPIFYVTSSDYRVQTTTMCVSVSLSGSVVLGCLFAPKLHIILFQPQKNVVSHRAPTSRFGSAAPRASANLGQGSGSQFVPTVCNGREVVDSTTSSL

As a reminder, the melting point is the temperature, or range, at which the solid turns liquid. With `O=C(O)CCc1ccc(-c2ccc(=O)n(Cc3ccc(Cl)cc3)c2)cc1` [2-32], the melting point came out at 185 °C. Also, the “Activity: left-ward shift of agonist mGluR2 concentration-response curve” value (from here on “Activity: left-ward shift”) at native rat mGluR2 was “++ (left-ward shift of agonist mGluR2 concentration-response curve [2- to 3.5-fold])”.

Compound `O=c1ccc2ccccc2n1Cc1ccc(Cl)cc1` [15-04, 1-(4-Chlorobenzyl)quinolin-2(1H)-one] gave a melting point of 139 °C. Besides, the “Activity: left-ward shift” value on native rat mGluR2 was “+ (left-ward shift of agonist mGluR2 concentration-response curve [<2])”.

On to `Cl.O=c1ccc(C#Cc2cccnc2)cn1Cc1cccc(F)c1` [7-02, 1-(3-Fluorobenzyl)-5-(2-(pyridin-3-yl)ethynyl)pyridin-2(1H)-one hydrochloride], for which the melting point stood at 179 °C. Also, on native rat mGluR2, the “Activity: left-ward shift” value was “+ (left-ward shift of agonist mGluR2 concentration-response curve [<2])”.

Regarding `CS(=O)(=O)NCc1ccc(-c2ccc(=O)n(Cc3ccc(Cl)cc3F)c2)cc1` [6-73], the melting point came out at 165 °C. For the same compound, the “Activity: left-ward shift” value at native rat mGluR2 was “++ (left-ward shift of agonist mGluR2 concentration-response curve [2- to 3.5-fold])”.

Compound `COc1ccc(-c2ccc(=O)n(Cc3ccc(C(F)(F)F)nc3)c2)cc1.Cl` [4-47, 5-(4-Methoxyphenyl)-1-((6-(trifluoromethyl)pyridin-3-yl)methyl)-pyridin-2(1H)-one hydrochloride] had a melting point of 168 °C. Also, the “Activity: left-ward shift” value at native rat mGluR2 was “+++ (left-ward shift of agonist mGluR2 concentration-response curve [>3.5])”.

Take `CC(C)CCn1ccc(-c2cccs2)c(C#N)c1=O` [10-28, 1,2-Dihydro-1-isopentyl-2-oxo-4-(thiophen-2-yl)pyridine-3-carbonitrile]: the melting point is 123 °C. In addition, the “Activity: left-ward shift” value on native rat mGluR2 was “+++ (left-ward shift of agonist mGluR2 concentration-response curve [>3.5])”.

Turning to `O=c1c2ccccc2ccn1Cc1ccc(F)cc1` [13-01, 2-(4-Fluorobenzyl)isoquinolin-1(2H)-one], the melting point worked out at 107 °C. In addition, the “Activity: left-ward shift” value on native rat mGluR2 is “++ (left-ward shift of agonist mGluR2 concentration-response curve [2- to 3.5-fold])”.

The compound `COc1ccc(-c2cn(Cc3ccc(Cl)cc3)c(=O)cn2)cc1` [12-06, 1-(4-Chlorobenzyl)-5-(4-methoxyphenyl)pyrazin-2(1H)-one] displayed a melting point of 133 °C. Also, on native rat mGluR2, the “Activity: left-ward shift” value was “+ (left-ward shift of agonist mGluR2 concentration-response curve [<2])”.

`COc1ccc(-c2ccn(Cc3cccc(F)c3)c(=O)c2)cc1` [11-03, 1-(3-Fluorobenzyl)-4-(4-methoxyphenyl)pyridin-2(1H)-one] returned a melting point of 114 °C. In addition, the “Activity: left-ward shift” value at native rat mGluR2 is “+ (left-ward shift of agonist mGluR2 concentration-response curve [<2])”.

Take `O=c1ccc(-c2ccc(OCc3nn[nH]n3)cc2)cn1Cc1ccc(Cl)cc1F` [6-65, 5-(4-((2H-Tetrazol-5-yl)methoxy)phenyl)-1-(4-chloro-2-fluorobenzyl)pyridin-2(1H)-one]: the melting point was 197 °C. Besides, the “Activity: left-ward shift” value at native rat mGluR2 is “+++ (left-ward shift of agonist mGluR2 concentration-response curve [>3.5])”.

The compound `CS(=O)(=O)Nc1cccc(-c2ccc(=O)n(Cc3ccc(Cl)cc3)c2)c1` [2-55] displayed a melting point of 169 °C. Moreover, the “Activity: left-ward shift” value at native rat mGluR2 is “++ (left-ward shift of agonist mGluR2 concentration-response curve [2- to 3.5-fold])”.

As for `COc1ccc(-c2ccc(=O)n(Cc3ccc(Cl)cc3)c2)cc1` [4-20], the melting point is 142 °C. Also, the “Activity: left-ward shift” value at native rat mGluR2 was “+++ (left-ward shift of agonist mGluR2 concentration-response curve [>3.5])”.

For `COc1ccc(-c2ccc(=O)n(Cc3ccc(F)c(F)c3)c2)cn1` [6-16], the melting point is 120 °C. Also, on native rat mGluR2, the “Activity: left-ward shift” value is “++ (left-ward shift of agonist mGluR2 concentration-response curve [2- to 3.5-fold])”.

For the compound `CCCn1ccc2c(NCCc3ccc(O)cc3)cccc2c1=O` [13-05, 5-(4-Hydroxyphenethylamino)-2-propylisoquinolin-1(2H)-one], the melting point lay within 170 to 171 °C. Further, on native rat mGluR2, the “Activity: left-ward shift” value was “+++ (left-ward shift of agonist mGluR2 concentration-response curve [>3.5])”.

The values above are taken from patent US8399493B2, “Pyridinone derivatives and their use as positive allosteric modulators of mGluR2-receptors” (Janssen Pharmaceuticals, Inc., priority 2004, dated 2013).
